Read-outs that look alike come from different tables or passages of the source.

What all share (assay type): cell-based, Madurella mycetomatis
The test system of assay [1] is ten different M. mycetomatis isolates. The assay can be described thus: MIC / MIC50 determination (XTT) in ten M. mycetomatis isolates. The note with it: no asterisk. On the technique in general: Tetrazolium assays rely on reduction of a dye to a coloured formazan, in cell work by metabolically active cells.
Assay [2] concerns M. mycetomatis genome strain MM55. Kind of assay: CLSI M38-A2 based in vitro susceptibility screening (XTT or resazurin), growth at fixed concentration. Conditions: for activity at 25 µM / activity at 100 µM / Percent fungal survival at 100 µM: Madurella mycetomatis.
In another assay the test system is M. mycetomatis MM55. The assay can be described thus: IC50 determination, 2-fold dilution series 16 to 0.03125 μM.
Where [3] appears, read: 25 uM, replicate A, read-out: Percentage survival at 25um, 25 um A.
[4] abbreviates: 100 uM, mean of three replicates, read-out: Percentage survival at 100um, 100 uM mean.
The mark [5] stands for this setting: 100 uM, replicate 1, read-out: Percentage survival at 100um, 100 uM A (first replicate column).
Where [6] appears, read: 100 uM, replicate 2, read-out: Percentage survival at 100um, 100 uM A (second replicate column).
Setting [7] is: 100 uM, replicate 3, read-out: Percentage survival at 100um, 100 uM A (third replicate column).
[8] abbreviates: Madurella mycetomatis, MM55; replicate 1; read-out: IC50 1 um.
Where [9] appears, read: Madurella mycetomatis, MM55; replicate 1; read-out: IC90 1 um.
Where [10] appears, read: Madurella mycetomatis, MM55; replicate 2; read-out: IC50 2 um.
Where [11] appears, read: Madurella mycetomatis, MM55; replicate 2; read-out: IC90 2 um.
Where [12] appears, read: Madurella mycetomatis, MM55; replicate 3; read-out: IC50 3 um.
[13] abbreviates: Madurella mycetomatis, MM55; replicate 3; read-out: IC90 3 um.
Setting [14] is: 25 uM, mean of three, M. mycetomatis MM55, read-out: Percentage survival at 25um, 25 uM mean.
Where [15] appears, read: 25 uM, replicate A, M. mycetomatis MM55, read-out: Percentage survival at 25um, 25 um A.
[16] abbreviates: 25 uM, replicate B, M. mycetomatis MM55, read-out: Percentage survival at 25um, 25 uM B.
Setting [17] is: 25 uM, replicate C, M. mycetomatis MM55, read-out: Percentage survival at 25um, 25 uM C.
Setting [18] is: 100 uM, mean of three, M. mycetomatis MM55, read-out: Percentage survival at 100um, 100 uM mean.
Setting [19] is: 100 uM, replicate 1, M. mycetomatis MM55, read-out: Percentage survival at 100um, 100 uM A (first replicate column).
The mark [20] stands for this setting: 100 uM, replicate 2, M. mycetomatis MM55, read-out: Percentage survival at 100um, 100 uM A (second replicate column).
The mark [21] stands for this setting: 100 uM, replicate 3, M. mycetomatis MM55, read-out: Percentage survival at 100um, 100 uM A (third replicate column).
Where [22] appears, read: 25 uM, replicate B, read-out: Percentage survival at 25um, 25 uM B.
Where [23] appears, read: 25 uM, replicate C, read-out: Percentage survival at 25um, 25 uM C.
[24] abbreviates: Madurella mycetomatis, MM55, mean of three replicates; read-out: IC50 mean.
[25] abbreviates: Madurella mycetomatis, MM55, mean of three replicates; read-out: IC90 mean.
The mark [26] stands for this setting: 25 uM, mean of three replicates, read-out: Percentage survival at 25um, 25 uM mean.

Regarding “Miconazole [MMV689401, reference compound]”, the MIC50 (in general, an inhibitory concentration at the 50% level, which refers to growth in some studies and to a panel of isolates in others) in assay [1] (median MIC over ten M. mycetomatis isolates, read-out: MIC50) is 0.13 µM. Besides, the “MIC range” value in assay [1] (range of MIC over ten M. mycetomatis isolates) was below 0.03 to 0.25 µM. Moreover, in assay [2], the “Percentage survival at 25um, 25 uM B” value is given as 77.7759%; the “Percentage survival at 25um, 25 uM C” value stood at 51.747%; the “Percentage survival at 25um, 25 uM mean” value amounted to 64.2303%. Also, in assay [2] (25 uM, replicate A, M. mycetomatis MM55), the “Percentage survival at 25um, 25 um A” value worked out at 63.1681%. In assay [2] (100 uM, mean of three, M. mycetomatis MM55), the “Percentage survival at 100um, 100 uM mean” value was 51.5997%. For the same molecule, in assay [2] (100 uM, replicate 1, M. mycetomatis MM55), the “Percentage survival at 100um, 100 uM A (first replicate column)” value is given as 60.4441%. The “Percentage survival at 100um, 100 uM A (second replicate column)” value in assay [2] (100 uM, replicate 2, M. mycetomatis MM55) is recorded as 58.6196%. Besides, the “Percentage survival at 100um, 100 uM A (third replicate column)” value in assay [2] (100 uM, replicate 3, M. mycetomatis MM55) is 35.7354%.

For the molecule `Nc1c(C(=O)NCc2ccco2)c2nc3ccccc3nc2n1CCN1CCCCC1` [MMV099714], in the assay with M. mycetomatis MM55, the “Drug static or cidal” value was “Static”. The IC50 (commonly the point on the concentration scale where inhibition reaches its midpoint) with M. mycetomatis MM55 (Madurella mycetomatis, MM55, read-out: IC50 1 um) is above 25 µM; in the assay on M. mycetomatis MM55 (Madurella mycetomatis, MM55, read-out: IC50 2 um) it was above 25 µM; in the assay on M. mycetomatis MM55 (Madurella mycetomatis, MM55, read-out: IC50 3 um), above 25 µM; with M. mycetomatis MM55 (Madurella mycetomatis, MM55, read-out: IC50 mean), above 25 µM. Moreover, the IC90 (usually the concentration needed for an effect of 90%) in the assay on M. mycetomatis MM55 (Madurella mycetomatis, MM55, read-out: IC90 1 um) was above 25 µM; with M. mycetomatis MM55 (Madurella mycetomatis, MM55, read-out: IC90 2 um), above 25 µM; in the assay on M. mycetomatis MM55 (Madurella mycetomatis, MM55, read-out: IC90 3 um), above 25 µM; in the assay with M. mycetomatis MM55 (Madurella mycetomatis, MM55, read-out: IC90 mean) it was above 25 µM. The activity at 25 µM in assay [2] (setting [3]) is 45.3%; in assay [2] (read-out: Percentage survival at 25um, 25 uM B), -3.06%; in assay [2] (read-out: Percentage survival at 25um, 25 uM C) it was 13%; in assay [2] (read-out: Percentage survival at 25um, 25 uM mean) it was 18.4%. In addition, the activity at 100 µM in assay [2] (setting [4]) was 3.55%; in assay [2] (setting [5]) it was -0.102%; in assay [2] (setting [6]) it was 7.05%; in assay [2] (setting [7]), 3.69%.

Take `O=[N+]([O-])c1ccc2c(CCc3c[nH]c4ccccc34)c[nH]c2c1` [MMV1593539]: the “Drug static or cidal” value with M. mycetomatis MM55 (M. mycetomatis) is listed as “Cidal”. For the same molecule, the IC50 in the assay on M. mycetomatis MM55 (Madurella mycetomatis, MM55, mean of replicates; read-out: IC50 mean) was 12.4 µM; in the assay on M. mycetomatis MM55 (setting [8]) it was 3.2 µM; in the assay on M. mycetomatis MM55 (setting [10]), 15.9 µM; in the assay with M. mycetomatis MM55 (setting [12]), 18 µM. Besides, the IC90 in the assay on M. mycetomatis MM55 (Madurella mycetomatis, MM55, mean of replicates; read-out: IC90 mean) was determined as 21.7 µM; in the assay on M. mycetomatis MM55 (setting [9]) it was 18 µM; in the assay on M. mycetomatis MM55 (setting [11]), 23.4 µM; with M. mycetomatis MM55 (setting [13]), 23.7 µM. Also, the activity at 25 µM was 4.51% in assay [2] (setting [14]), 2.73% in assay [2] (setting [15]), 8.11% in assay [2] (setting [16]) and 2.7% in assay [2] (setting [17]). Also, the activity at 100 µM in assay [2] (setting [18]) turned out to be 47.9%; in assay [2] (setting [19]), 0.0782%; in assay [2] (setting [21]), 7.7%. In addition, the Percent fungal survival at 100 µM in assay [2] (setting [20]) was 136%.

With `NCC(=O)Nc1ccc(-n2nc(C(F)(F)F)cc2-c2ccc3c(ccc4ccccc43)c2)cc1` [MMV1578560], in the assay with M. mycetomatis MM55, the “Drug static or cidal” value is recorded as “Static”. The IC90 with M. mycetomatis MM55 (Madurella mycetomatis, MM55; read-out: IC90 mean) was above 25 µM; in the assay on M. mycetomatis MM55 (Madurella mycetomatis, MM55; replicate 1; read-out: IC90 1), above 25 µM; in the assay on M. mycetomatis MM55 (Madurella mycetomatis, MM55; replicate 2; read-out: IC90 2) it was above 25 µM; in the assay with M. mycetomatis MM55 (Madurella mycetomatis, MM55; replicate 3; read-out: IC90 3), above 25 µM. Also, the IC50 in the assay with M. mycetomatis MM55 (Madurella mycetomatis, MM55; replicate 1; read-out: IC50 1) is 17.4 µM; in the assay with M. mycetomatis MM55 (Madurella mycetomatis, MM55; replicate 2; read-out: IC50 2), 22.8 µM; in the assay with M. mycetomatis MM55 (Madurella mycetomatis, MM55; replicate 3; read-out: IC50 3) it was above 25 µM. In addition, the activity at 25 µM was 9.74% in assay [2] (25 uM, mean, read-out: Percentage survival at 25um, 25 uM mean); 29.4% in assay [2] (setting [3]); -2.28% in assay [2] (setting [22]); 2.05% in assay [2] (setting [23]). Further, the activity at 100 µM in assay [2] (100 uM, mean, read-out: Percentage survival at 100um, 100 uM mean) was 3%; in assay [2] (100 uM, replicate (first column), read-out: Percentage survival at 100um, 100 uM A) it was -6.61%; in assay [2] (100 uM, replicate (second column), read-out: Percentage survival at 100um, 100 uM A), 10.2%; in assay [2] (100 uM, replicate (third column), read-out: Percentage survival at 100um, 100 uM A) it was 5.38%.

As to `FC(F)(F)Oc1ccc(Nc2ccc3cccc(Cl)c3n2)cc1` [MMV1581032], the “Drug static or cidal” value in the assay with M. mycetomatis MM55 is reported as “Static”. Besides, the IC50 in the assay with M. mycetomatis MM55 (setting [24]), in the assay on M. mycetomatis MM55 (setting [8]), with M. mycetomatis MM55 (setting [10]) and with M. mycetomatis MM55 (setting [12]) was above 25 µM in each case. The IC90 in the assay with M. mycetomatis MM55 (setting [25]), in the assay with M. mycetomatis MM55 (setting [9]), in the assay on M. mycetomatis MM55 (setting [11]) and in the assay with M. mycetomatis MM55 (setting [13]) was above 25 µM each time. Besides, the activity at 25 µM in assay [2] (setting [26]) is -0.326%; in assay [2] (setting [3]), -12.4%; in assay [2] (setting [22]), 8.52%; in assay [2] (setting [23]) it was 2.93%. In addition, the activity at 100 µM was 0.711% in assay [2] (setting [4]), -4.67% in assay [2] (setting [5]) and 5.8% in assay [2] (setting [7]). Besides, the Percent fungal survival at 100 µM in assay [2] (setting [6]) was found to be 1%.

Take `N#Cc1c(F)c(Cl)c(NCc2ccccc2)c(C#N)c1F` [MMV1582496]: in the assay with M. mycetomatis MM55, the “Drug static or cidal” value is reported as “Static”. For the same molecule, the IC50 in the assay on M. mycetomatis MM55 (setting [24]) is 15.2 µM; with M. mycetomatis MM55 (setting [8]), 13.2 µM; in the assay on M. mycetomatis MM55 (setting [10]), 15.8 µM; in the assay with M. mycetomatis MM55 (setting [12]) it was 16.5 µM. The IC90 in the assay with M. mycetomatis MM55 (setting [25]) was 23.6 µM; with M. mycetomatis MM55 (setting [9]) it was 23.1 µM; in the assay on M. mycetomatis MM55 (setting [11]) it was 23.6 µM; in the assay on M. mycetomatis MM55 (setting [13]), 24.2 µM. Further, the activity at 25 µM is 4.98% in assay [2] (setting [26]), 2% in assay [2] (setting [3]), -0.68% in assay [2] (setting [22]) and 13.6% in assay [2] (setting [23]). Further, the values for the activity at 100 µM in assay [2] (setting [4]), in assay [2] (setting [5]) and in assay [2] (setting [7]) were 2.09%, -0.676% and 5.72%, respectively. For the same molecule, the Percent fungal survival at 100 µM in assay [2] (setting [6]) came out at 1.24%.

With `CC(C)=CCC/C(C)=C/CNCCNC1C2CC3CC(C2)CC1C3` (stereo not shown) [MMV687273], the “Drug static or cidal” value in the assay on M. mycetomatis MM55 (M. mycetomatis) was “Cidal”. The IC50 in the assay with M. mycetomatis MM55 (setting [8]) is 23.9 µM; in the assay with M. mycetomatis MM55 (setting [10]), 14.6 µM; in the assay on M. mycetomatis MM55 (setting [12]), above 25 µM. Besides, the values for the IC90 in the assay with M. mycetomatis MM55 (setting [9]), in the assay on M. mycetomatis MM55 (setting [11]) and in the assay on M. mycetomatis MM55 (setting [13]) were above 25 µM, 22.9 µM and above 25 µM, respectively. Further, the activity at 25 µM in assay [2] (setting [14]) was 1.12%; in assay [2] (setting [15]) it was -2.04%; in assay [2] (setting [16]), 4.77%; in assay [2] (setting [17]), 0.619%. The activity at 100 µM was found to be 6.61% in assay [2] (setting [18]), 4.04% in assay [2] (setting [19]) and 0.477% in assay [2] (setting [21]). Further, the Percent fungal survival at 100 µM in assay [2] (setting [20]) worked out at 15.3%.

The values are drawn from paper PMC8815882, “Screening the pandemic response box identified benzimidazole carbamates, Olorofim and ravuconazole as promising drug candidates for the treatment of eumycetoma” (PLoS Neglected Tropical Diseases, 2022).
